Data reported in US8648201B2, “Aminopyridine derivatives for treating tumors and inflammatory diseases” (MERCK PATENT GmbH, priority 2009, dated 2014).

Tests used:
IRAK-1 = target: T1, IRAK-1 (Homo sapiens, UniProt P51617); assay: Test for the inhibition of IRAK1 (autophosphorylation, flashplate); assay type: biochemical; conditions: enzyme
T1 construct: His6 (N); Dr.Jaekel Pool B, 232Y08C1.IRK
Procedure: (§1) The experimental batches are carried out in a flashplate system with 384 wells/microtitre plate. In each case, in order to investigate the inhibition of the autophosphorylation activity of IRAK1, the IRAK1 sample His6-IRAK1 (5.1 nM), 1 μM ATP (with 0.25 μCi of ^33P-ATP/well) and the test substance in 50 μl of conventional experimental solution per well are incubated at 22° C. for 180 min. The test substances are employed in corresponding concentrations (if desired in a dilution series). The control is carried out without test substance. The reaction is stopped using standard methods and washed. The activity of the kinase is measured via the incorporated radioactivity in top count. In order to determine the non-specific kinase reaction (blank value), the experimental batches are carried out in the presence of 1 μM staurosporin. The radioactivity (decompositions per minute) of the blank value (no use of test substance in the presence of 1 μM staurosporin) is subtracted from all other radioactivity values. The controls (kinase activity without test substance) are set equal to 100 percent and all other radioactivity values (after subtracting the blank value) are expressed set in relation thereto (for example in % of the control). IC50 values (50% inhibition) are determined with the aid of statistics programs, such as, for example, RS1.

IRAK-4 = target: T2, IRAK-4 (Homo sapiens, UniProt Q9NWZ3); assay: Test for the inhibition of IRAK4 (flashplate, 33P-ATP); assay type: biochemical; conditions: enzyme
T2 construct: His6 (N); Dr.Jaekel
T2 sequence (Q9NWZ3 1-460): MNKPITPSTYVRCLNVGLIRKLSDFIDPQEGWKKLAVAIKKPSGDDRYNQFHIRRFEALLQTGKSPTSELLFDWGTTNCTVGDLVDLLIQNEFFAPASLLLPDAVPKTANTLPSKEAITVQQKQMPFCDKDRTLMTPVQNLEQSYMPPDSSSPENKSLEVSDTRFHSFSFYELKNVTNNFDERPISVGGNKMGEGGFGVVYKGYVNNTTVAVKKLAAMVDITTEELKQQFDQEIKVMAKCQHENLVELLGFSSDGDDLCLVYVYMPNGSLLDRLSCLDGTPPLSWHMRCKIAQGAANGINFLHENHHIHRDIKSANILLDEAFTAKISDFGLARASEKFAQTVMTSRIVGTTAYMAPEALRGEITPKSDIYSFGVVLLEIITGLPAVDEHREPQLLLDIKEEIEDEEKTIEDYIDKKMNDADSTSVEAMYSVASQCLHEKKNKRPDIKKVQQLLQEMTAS
Procedure: as §1, with “case,” for “case, in order to investigate”, “the IRAK4 sample His6-IRAK4 (7.3 nM),” for “the inhibition of”, “the biotinylated substrate peptide STK substrate 1-biotin (Cisbio Bioassays, France) (300” for “the autophosphorylation activity of IRAK1, the IRAK1 sample His6-IRAK1 (5.1”, “nM), 10” for “nM), 1”

PDK1 [1] = target: T3, PDK1 (Homo sapiens, UniProt O15530); assay: Test for the inhibition of PDK1 (flashplate, 33P-ATP); assay type: biochemical; conditions: enzyme
T3 construct: His6 (N)
T3 sequence (O15530 51-556 limits assumed): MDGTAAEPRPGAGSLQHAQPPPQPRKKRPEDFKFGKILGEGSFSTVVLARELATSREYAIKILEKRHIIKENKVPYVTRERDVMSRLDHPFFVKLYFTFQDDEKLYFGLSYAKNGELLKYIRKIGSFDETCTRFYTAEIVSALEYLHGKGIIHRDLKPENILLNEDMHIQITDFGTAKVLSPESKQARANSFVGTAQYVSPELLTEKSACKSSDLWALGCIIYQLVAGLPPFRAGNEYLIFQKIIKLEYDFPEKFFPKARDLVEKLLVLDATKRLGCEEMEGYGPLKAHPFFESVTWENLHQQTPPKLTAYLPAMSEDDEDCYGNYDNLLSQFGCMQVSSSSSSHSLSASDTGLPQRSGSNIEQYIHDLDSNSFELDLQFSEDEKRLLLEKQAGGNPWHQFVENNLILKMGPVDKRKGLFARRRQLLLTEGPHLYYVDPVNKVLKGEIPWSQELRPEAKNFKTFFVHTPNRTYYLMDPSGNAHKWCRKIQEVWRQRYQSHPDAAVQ
Procedure: The experimental batches are carried out in a flashplate system with 384 wells/microtitration plate.
In each case, the PDK1 sample His6-PDK1(1-50)(3.4 nM), the PDK1 substrate biotin-bA-bA-[…] (400 nM), 4 μM ATP (with 0.2 μCi of ^33P-ATP/well) and the test substance in 50 μl of conventional experimental solution per well are incubated at 30° C. for 60 min. The test substances are employed in corresponding concentrations (if desired in a dilution series). The control is carried out without test substance. The reaction is stopped using standard methods and washed. The activity of the kinase is measured via the incorporated radioactivity in top count. In order to determine the non-specific kinase reaction (blank value), the experimental batches are carried out in the presence of 100 nM staurosporin.
The radioactivity (decompositions per minute) of the blank value (no use of test substance in the presence of staurosporin) is subtracted from all other radioactivity values. The controls (kinase activity without test substance) are set equal to 100 percent and all other radioactivity values (after subtracting the blank value) are expressed set in relation thereto (for example in % of the control).
IC50 values (50% inhibition) are determined with the aid of statistics programmes, such as, for example, RS1.

PDK1 [2] = target: T4, PDK1 (Homo sapiens, UniProt O15530); assay: IC50 PDK1 (cell); assay type: cell-based
T4 construct: endogenous in cells; host or cells: commercially available colon carcinoma, ovary, prostate or breast cell lines (none named)
T4 sequence (O15530 1-556): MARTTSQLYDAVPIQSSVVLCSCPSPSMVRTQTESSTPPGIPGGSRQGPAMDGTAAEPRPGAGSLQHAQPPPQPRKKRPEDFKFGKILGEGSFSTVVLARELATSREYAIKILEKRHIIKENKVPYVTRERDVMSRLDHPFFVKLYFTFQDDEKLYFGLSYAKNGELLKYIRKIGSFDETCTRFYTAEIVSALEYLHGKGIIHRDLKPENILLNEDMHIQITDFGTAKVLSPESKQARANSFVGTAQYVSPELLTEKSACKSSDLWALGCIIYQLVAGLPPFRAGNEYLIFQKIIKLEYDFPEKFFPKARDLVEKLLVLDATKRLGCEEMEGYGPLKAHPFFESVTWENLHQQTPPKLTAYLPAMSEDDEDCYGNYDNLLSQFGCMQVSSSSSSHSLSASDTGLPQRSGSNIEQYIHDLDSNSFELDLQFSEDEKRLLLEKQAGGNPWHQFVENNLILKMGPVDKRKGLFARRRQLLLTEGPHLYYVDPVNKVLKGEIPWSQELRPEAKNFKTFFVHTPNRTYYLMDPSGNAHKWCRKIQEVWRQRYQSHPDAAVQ
Procedure: The cells are sown in a suitable cell density in microtitre plates (96-well format) and the test substances are added in the form of a concentration series. After four further days of cultivation in serum-containing medium, the tumour cell proliferation/tumour cell vitality can be determined by means of an Alamar Blue test system. A defined number of cells (for example 2000 cells) per culture/well in a volume of 180 μl of culture medium are sown in microtitre plates (96 well cell-culture plates) using a multichannel pipette. The cells are subsequently cultivated in a CO2 incubator (37° C. and 10% CO2). The test substances are dissolved, for example, in DMSO and subsequently employed in corresponding concentration (if desired in a dilution series) in the cell culture medium. The dilution steps can be adapted depending on the efficiency of the active ingredients and the desired spread of the concentrations. Cell culture medium is added to the test substances in corresponding concentrations. The addition of the test substances to the cells can take place on the same day as the sowing of the cells. To this end, in each case 20 μl of substance solution from the predilution plate are added to the cultures/wells. The cells are cultivated for a further 4 days at 37° Celsius and 10% CO2. In each case, 20 μl of Alamar Blue reagent are added per well, and the microtitre plates are incubated, for example, for a further seven hours in a CO2 incubator (at 37° C. and 10% CO2). The plates are measured in a reader with a fluorescence filter at a wavelength of 540 nm. The plates can be shaken gently immediately before the measurement. The absorbance value of the medium control (no cells and test substances used) is subtracted from all other absorbance values. The controls (cells without test substance) are set equal to 100 percent, and all other absorbance values are set in relation thereto (for example in % of control): Calculation: 100*(value with cells and test substance−value of medium control)/(value with cells−value of medium control) IC50 values (50% inhibition) are determined with the aid of statistics programs, such as, for example, RS1.

T1 sequence (P51617 whole entry, species assumed): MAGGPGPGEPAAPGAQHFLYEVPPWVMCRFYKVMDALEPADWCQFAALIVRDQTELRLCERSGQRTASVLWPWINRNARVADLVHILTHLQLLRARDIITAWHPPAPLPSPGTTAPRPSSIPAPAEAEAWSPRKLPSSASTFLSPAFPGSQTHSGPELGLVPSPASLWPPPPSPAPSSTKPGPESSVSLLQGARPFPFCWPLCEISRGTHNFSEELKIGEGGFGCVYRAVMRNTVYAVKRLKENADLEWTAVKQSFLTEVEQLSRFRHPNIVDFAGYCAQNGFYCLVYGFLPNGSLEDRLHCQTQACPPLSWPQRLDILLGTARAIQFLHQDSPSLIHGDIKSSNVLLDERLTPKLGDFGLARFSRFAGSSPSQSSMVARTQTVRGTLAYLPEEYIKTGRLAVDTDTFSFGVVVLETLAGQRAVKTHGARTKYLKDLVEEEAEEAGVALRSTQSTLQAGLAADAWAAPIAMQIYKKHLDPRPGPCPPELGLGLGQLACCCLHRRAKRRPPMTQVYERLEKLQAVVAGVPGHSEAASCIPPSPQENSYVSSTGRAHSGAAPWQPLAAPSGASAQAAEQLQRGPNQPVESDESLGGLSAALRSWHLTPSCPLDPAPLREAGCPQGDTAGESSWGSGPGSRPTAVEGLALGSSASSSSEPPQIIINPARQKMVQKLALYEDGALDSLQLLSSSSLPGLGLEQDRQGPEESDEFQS

Row | Structure (SMILES) | IC50 (IRAK-1) [nM] | IC50 (IRAK-4) [nM] | IC50 (PDK1 [1]) [nM] | IC50 (PDK1 [2]) [µM]
1 | CN(C)c1ccc2nc(-c3cc(-c4cnn(C)c4)cnc3N)[nH]c2c1 [Compound A68] |  |  | 1 to 100 | > 10
2 | COCCn1cc(-c2cnc(N)c(-c3nc4cc(C5=NNC(=O)CC5C)ccc4[nH]3)c2)cn1 (stereo not drawn) [Compound A12] |  |  | 1 to 100 | 0.1 to 10
3 | CC1CC(=O)NN=C1c1ccc2[nH]c(-c3cc(-c4cnn(CCN(C)C)c4)cnc3N)nc2c1 (stereo not drawn) [Compound A15, 6-(2-{2-Amino-5-[1-(2-dimethylaminoethyl)-1H-pyrazol-4-yl]pyridin-3-yl}-1H-benzimidazol-5-yl)-5-methyl-4,5-dihydro-2H-pyridazin-3-one] |  |  | 1 to 100 | > 10
4 | CC1CC(=O)NN=C1c1ccc2[nH]c(-c3cc(-c4cnn(C5CCN(C)CC5)c4)cnc3N)nc2c1 (stereo not drawn) [Compound A16] |  |  | 1 to 100 | > 10
5 | COCCCn1cc(-c2cnc(N)c(-c3nc4cc(C5=NNC(=O)CC5C)ccc4[nH]3)c2)cn1 (stereo not drawn) [Compound A13, 6-(2-{2-Amino-5-[1-(3-methoxypropyl)-1H-pyrazol-4-yl]-pyridin-3-yl}-1H-benzimidazol-5-yl)-5-methyl-4,5-dihydro-2H-pyridazin-3-one] |  |  | 1 to 100 | 0.1 to 10
6 | Nc1ncc(-c2cnn(C3CCNCC3)c2)cc1-c1nc2cc(OC(F)(F)F)ccc2[nH]1 [Compound A67] |  |  | 1 to 100 | 0.1 to 10
7 | CC(C)(C)c1ccc2nc(-c3cc(-c4cnn(C5CCNCC5)c4)cnc3N)[nH]c2c1 [Compound A53] |  |  | 1 to 100 | 0.1 to 10
8 | CC1CC(=O)NN=C1c1ccc2[nH]c(-c3cc(-c4cnn(C(C)C)c4)cnc3N)nc2c1 (stereo not drawn) [Compound A11, 6-{2-[2-Amino-5-(1-isopropyl-1H-pyrazol-4-yl)pyridin-3-yl]-1H-benzimidazol-5-yl}-5-methyl-4,5-dihydro-2H-pyridazin-3-one] |  |  | 1 to 100 | 0.1 to 10
9 | COc1cc2[nH]c(-c3cc(-c4cnn(C5CCNCC5)c4)cnc3N)nc2cc1F [Compound A69] | 1 to 100 | 1 to 100 | 1 to 100 | 
10 | Cn1cc(-c2cnc(N)c(-c3nc4ccc(F)cc4[nH]3)c2)cn1 [Compound A74] | 100 to 10000 | 100 to 10000 | 1 to 100 | 
11 | Nc1ncc(-c2cnn(C3CCNCC3)c2)cc1-c1nc2ccc(F)cc2[nH]1 [Compound A50] | 100 to 10000 | 1 to 100 |  | 

Further lines, results first:

Row | IC50 (IRAK-1) [nM] | IC50 (IRAK-4) [nM] | IC50 (PDK1 [1]) [nM] | IC50 (PDK1 [2]) [µM] | Structure (SMILES)
12 | 100 to 10000 | 1 to 100 | 100 to 10000 |  | COc1cc2[nH]c(-c3cc(-c4cnn(CCN5CCOCC5)c4)cnc3N)nc2cc1F [Compound A148, 3-(5-Fluoro-6-methoxy-1H-benzimidazol-2-yl)-5-[1-(2-morpholin-4-ylethyl)-1H-pyrazol-4-yl]pyridin-2-ylamine]
13 |  |  | 1 to 100 | > 10 | Cn1cc(-c2cnc(N)c(-c3nc4ccc(C(O)c5ccccc5)cc4[nH]3)c2)cn1 (stereo not drawn) [Compound A80]
14 |  |  | 1 to 100 | 0.1 to 10 | Cn1cc(-c2cnc(N)c(-c3nc4c(O)cccc4[nH]3)c2)cn1 [Compound A102, 2-[2-Amino-5-(1-methyl-1H-pyrazol-4-yl)pyridin-3-yl]-1H-benzimidazol-4-ol]
15 | 1 to 100 | 100 to 10000 | 1 to 100 |  | COc1cc2nc(-c3cc(-c4cnn(C)c4)cnc3N)[nH]c2cc1F [Compound A78]
16 | 100 to 10000 | 100 to 10000 | 1 to 100 |  | Cc1cccc2nc(-c3cc(-c4cnn(C5CCNCC5)c4)cnc3N)[nH]c12 [Compound A89, 3-(7-Methyl-1H-benzimidazol-2-yl)-5-(1-piperidin-4-yl-1H-pyrazol-4-yl)pyridin-2-ylamine]
17 | 1 to 100 | 100 to 10000 |  |  | COc1ccc2nc(-c3cc(-c4cnn(Cc5cccs5)c4)cnc3N)[nH]c2c1 [Compound A113, 3-(6-Methoxy-1H-benzimidazol-2-yl)-5-(1-thiophen-2-ylmethyl-1H-pyrazol-4-yl)pyridin-2-ylamine]
